Experimental data as given in ChEMBL document CHEMBL2202958, “Development of potent macrocyclic inhibitors of genotype 3a HCV NS3/4A protease” (Bioorg Med Chem Lett, 2012).

How the values were obtained:
[1] = Drug level in Sprague-Dawley rat liver at 5 mg/kg, po after 4 hrs; format: ADME, organism-based; set-up: dose 5 mg/kg, route oral; settings: read-out: Drug uptake
[2] = test system: Hepatitis C virus; assay: Antiviral activity against HCV1b con1 infected in human Huh-7 cells assessed as inhibition of viral replication after 24 hrs in presence of 10% fetal bovine serum; format: functional, organism-based, Hepacivirus hominis; settings: Con1, Huh-7, 24 h
[3] = test system: Hepatitis C virus; assay: Antiviral activity against HCV1b con1 infected in human Huh-7 cells assessed as inhibition of viral replication after 24 hrs in presence of 50% normal human serum; format: functional, organism-based, Hepacivirus hominis; settings: Con1, Huh-7, 24 h
[4] = Inhibition of HCV3a NS3/4A protease by time-resolved fluorescence assay; set-up: species or system Hepatitis C virus subtype 3a
[5] = Inhibition of HCV1b BK NS3/4A protease expressed in Escherichia coli after 1 hr by time-resolved fluorescence assay; set-up: species or system Hepatitis C virus (isolate BK)
[6] = Inhibition of HCV3a NS3/4A protease; set-up: species or system Hepatitis C virus subtype 3a
[7] = test system: Hepatitis C virus; assay: Inhibition of HCV1b NS3/4A protease R155K mutant by time-resolved fluorescence assay; set-up: species or system Hepatitis C virus subtype 1b
[8] = test system: Hepatitis C virus; assay: Inhibition of HCV1b NS3/4A protease A156T mutant by time-resolved fluorescence assay; set-up: species or system Hepatitis C virus subtype 1b

| Compound | concentration at 4 h [1] [µM] | IC50 [2] [nM] | Ki [4] [nM] | Ki [6] [nM] | IC50 [3] [nM] | Ki [5] [nM] | Ki [7] [nM] | Ki [8] [nM] |
| --- | --- | --- | --- | --- | --- | --- | --- | --- |
| CC[C@@H]1C[C@]1(NC(=O)[C@@H]1C[C@@H]2CN1C(=O)[C@H](C(C)(C)C)NC(=O)OCC(C)(C)CCCCc1cccc3c1CN(C3)C(=O)O2)C(=O)NS(=O)(=O)C1CC1 [VANIPREVIR] |  |  |  | 54 |  |  |  |  |
| C=C[C@@H]1C[C@]1(NC(=O)[C@@H]1C[C@@H]2CN1C(=O)[C@H](C1CCCCC1)NC(=O)OCC(C)(C)CCCc1cc3c(cc4nccn4c3cc1OC)O2)C(=O)NS(=O)(=O)C1CC1 | 0.8 | 43 | 1.8 |  | 140 | 0.04 |  |  |
| C=C[C@@H]1C[C@]1(NC(=O)[C@@H]1C[C@@H]2CN1C(=O)[C@H](C1CCCC1)NC(=O)OCC(C)(C)CCCc1cc3c(cc(OCc4ncn(C)n4)nc3cc1OC)O2)C(=O)NS(=O)(=O)C1CC1 | 0.03 | 36 | 1 |  | 170 | 0.03 |  |  |
| C=C[C@@H]1C[C@]1(NC(=O)[C@@H]1C[C@@H]2CN1C(=O)[C@H](C1CCCCC1)NC(=O)OCC(C)(C)CCCc1ccc3c(c1)c(cc1nccn13)O2)C(=O)NS(=O)(=O)C1CC1 | 0.7 | 33 | 5.2 |  | 180 | 0.08 |  |  |
| C=C[C@@H]1C[C@]1(NC(=O)[C@@H]1C[C@@H]2CN1C(=O)[C@H](C1CCCCC1)NC(=O)OCC(C)(C)CCCc1cc3c(cc(-c4ccc(F)cc4)nc3cc1OC)O2)C(=O)NS(=O)(=O)C1CC1 |  | 11 | 29 |  | 110 | 0.18 |  |  |
| C=C[C@@H]1C[C@]1(NC(=O)[C@@H]1C[C@@H]2CN1C(=O)[C@H](C1CCCCC1)NC(=O)OCC(C)(C)CCCc1cc3c(cc(OCc4csc(C)n4)nc3cc1OC)O2)C(=O)NS(=O)(=O)C1CC1 | 19 | 3.5 | 3.1 |  | 16 | 0.1 | 2.1 | 88 |
| C=C[C@@H]1C[C@]1(NC(=O)[C@@H]1C[C@@H]2CN1C(=O)[C@H](C1CCCCC1)NC(=O)OCC(C)(C)CCCc1cc3c(cc(NC4CCCCC4)nc3cc1OC)O2)C(=O)NS(=O)(=O)C1CC1 |  | 39 | 7.6 |  | 1200 | 0.12 |  |  |
| C=C[C@@H]1C[C@]1(NC(=O)[C@@H]1C[C@@H]2CN1C(=O)[C@H](C1CCCC1)NC(=O)OCC(C)(C)CCCc1cc3c(cc(OCC)nc3cc1OC)O2)C(=O)NS(=O)(=O)C1CC1 | 35 | 2 | 2.2 |  | 11 | 0.03 | 1.3 | 41 |
| C=C[C@@H]1C[C@]1(NC(=O)[C@@H]1C[C@@H]2CN1C(=O)[C@H](C1CCCCC1)NC(=O)OCC(C)(C)CCCc1cc3c(cc(-c4cccnc4)nc3cc1OC)O2)C(=O)NS(=O)(=O)C1CC1 | 0.2 | 27 | 55 |  | 92 |  |  |  |
| C=C[C@@H]1C[C@]1(NC(=O)[C@@H]1C[C@@H]2CN1C(=O)[C@H](C1CCCCC1)NC(=O)OCC(C)(C)CCCc1cc3c(cc(N(C)C(=O)OCC)nc3cc1OC)O2)C(=O)NS(=O)(=O)C1CC1 | 42 | 5 | 4.3 |  | 27 | 0.03 | 3.3 | 87 |
| C=C[C@@H]1C[C@]1(NC(=O)[C@@H]1C[C@@H]2CN1C(=O)[C@H](C1CCCCC1)NC(=O)OCC(C)(C)CCCc1cc3c(cc(O)nc3cc1OC)O2)C(=O)NS(=O)(=O)C1CC1 | 0.07 | 85 | 23 |  | 460 | 0.07 |  |  |
| C=C[C@@H]1C[C@]1(NC(=O)[C@@H]1C[C@@H]2CN1C(=O)[C@H](C1CCCC1)NC(=O)OCC(C)(C)CCCc1cc3c(nc4cc(OC)ccc4c3cc1OC)O2)C(=O)NS(=O)(=O)C1CC1 | 35 | 4 | 0.8 |  | 27 | < 0.02 | 0.4 | 16 |

Continued, in another order:

| concentration at 4 h [1] [µM] | IC50 [2] [nM] | Ki [4] [nM] | Ki [6] [nM] | Compound | IC50 [3] [nM] | Ki [5] [nM] | Ki [7] [nM] | Ki [8] [nM] |
| --- | --- | --- | --- | --- | --- | --- | --- | --- |
| 5.4 | 4 | 4.1 |  | C=C[C@@H]1C[C@]1(NC(=O)[C@@H]1C[C@@H]2CN1C(=O)[C@H](C1CCCCC1)NC(=O)OCC(C)(C)CCCc1cc3c(cc(OC)nc3cc1OC)O2)C(=O)NS(=O)(=O)C1CC1 | 19 | 0.04 |  |  |
| 6.7 | 6 | 78 |  | C=C[C@@H]1C[C@]1(NC(=O)[C@@H]1C[C@@H]2CN1C(=O)[C@H](C1CCCCC1)NC(=O)OCC(C)(C)CCCc1cc3c(cc(-c4cccc(OC)c4)nc3cc1OC)O2)C(=O)NS(=O)(=O)C1CC1 | 19 | 0.07 |  |  |
| 2.6 | 4 | 1.1 |  | C=C[C@@H]1C[C@]1(NC(=O)[C@@H]1C[C@@H]2CN1C(=O)[C@H](C1CCCC1)NC(=O)OCC(C)(C)CCCc1cc3c(cc(OCc4ncco4)nc3cc1OC)O2)C(=O)NS(=O)(=O)C1CC1 | 16 | < 0.02 |  |  |
| 7.5 | 4 | 0.8 |  | C=C[C@@H]1C[C@]1(NC(=O)[C@@H]1C[C@@H]2CN1C(=O)[C@H](C1CCCC1)NC(=O)OCC(C)(C)CCCc1cc3c(nc4cc(C#N)ccc4c3cc1OC)O2)C(=O)NS(=O)(=O)C1CC1 | 13 | < 0.02 |  |  |
| 16 | 4 | 1.9 |  | C=C[C@@H]1C[C@]1(NC(=O)[C@@H]1C[C@@H]2CN1C(=O)[C@H](C1CCCC1)NC(=O)OCC(C)(C)CCCc1cc3c(nc4cc(C)ccc4c3cc1OC)O2)C(=O)NS(=O)(=O)C1CC1 | 15 | < 0.02 |  |  |
| 4.6 | 5 | 15 |  | C=C[C@@H]1C[C@]1(NC(=O)[C@@H]1C[C@@H]2CN1C(=O)[C@H](C1CCCCC1)NC(=O)OCC(C)(C)CCCc1cc3c(cc(OC4CCCC4)nc3cc1OC)O2)C(=O)NS(=O)(=O)C1CC1 | 34 | 0.05 |  |  |
| 40 | 6 | 7.6 |  | C=C[C@@H]1C[C@]1(NC(=O)[C@@H]1C[C@@H]2CN1C(=O)[C@H](C1CCCCC1)NC(=O)OCC(C)(C)CCCc1cc3c(cc(OCC)nc3cc1OC)O2)C(=O)NS(=O)(=O)C1CC1 | 43 | 0.09 |  |  |
| 0.1 | 5 | 7.5 |  | C=C[C@@H]1C[C@]1(NC(=O)[C@@H]1C[C@@H]2CN1C(=O)[C@H](C1CCCCC1)NC(=O)OCC(C)(C)CCCc1cc3c(cc(N4CCCCC4)nc3cc1OC)O2)C(=O)NS(=O)(=O)C1CC1 | 26 | 0.07 |  |  |
| 6.1 | 3 | 18 |  | C=C[C@@H]1C[C@]1(NC(=O)[C@@H]1C[C@@H]2CN1C(=O)[C@H](C1CCCCC1)NC(=O)OCC(C)(C)CCCc1cc3c(cc(-c4ccc(OC)cc4)nc3cc1OC)O2)C(=O)NS(=O)(=O)C1CC1 | 25 | 0.07 |  |  |
| 27 | 3 | 1.7 |  | C=C[C@@H]1C[C@]1(NC(=O)[C@@H]1C[C@@H]2CN1C(=O)[C@H](C1CCCC1)NC(=O)OCC(C)(C)CCCc1cc3c(nc4ccccc4c3cc1OC)O2)C(=O)NS(=O)(=O)C1CC1 | 29 | < 0.02 |  |  |
| 6.3 | 7 | 62 |  | C=C[C@@H]1C[C@]1(NC(=O)[C@@H]1C[C@@H]2CN1C(=O)[C@H](C1CCCCC1)NC(=O)OCC(C)(C)CCCc1cc3c(cc(-c4ccccc4OC)nc3cc1OC)O2)C(=O)NS(=O)(=O)C1CC1 | 31 | 0.09 |  |  |
| 2.7 | 4 | 2 |  | C=C[C@@H]1C[C@]1(NC(=O)[C@@H]1C[C@@H]2CN1C(=O)[C@H](C1CCCC1)NC(=O)OCC(C)(C)CCCc1cc3c(cc(OCc4csc(C(C)C)n4)nc3cc1OC)O2)C(=O)NS(=O)(=O)C1CC1 | 26 | < 0.02 |  |  |
|  | 7 | 36 |  | C=C[C@@H]1C[C@]1(NC(=O)[C@@H]1C[C@@H]2CN1C(=O)[C@H](C1CCCC1)NC(=O)OCC(C)(C)CCCc1cc3c(nc4ccc(Cl)cc4c3cc1OC)O2)C(=O)NS(=O)(=O)C1CC1 | 31 | < 0.02 |  |  |
| < 0.005 | 1.6 | 5.4 |  | C=C[C@@H]1C[C@]1(NC(=O)[C@@H]1C[C@@H]2CN1C(=O)[C@H](C1CCCCC1)NC(=O)OCC(C)(C)CCCc1cc3c(cc(NC)nc3cc1OC)O2)C(=O)NS(=O)(=O)C1CC1 | 90 | 0.09 |  |  |
| 9.9 | 3.6 | 21 |  | C=C[C@@H]1C[C@]1(NC(=O)[C@@H]1C[C@@H]2CN1C(=O)[C@H](C1CCCCC1)NC(=O)OCC(C)(C)CCCc1cc3c(cc(-c4ccccc4)nc3cc1OC)O2)C(=O)NS(=O)(=O)C1CC1 | 28 | 0.05 |  |  |
| 22 | 9 | 0.9 |  | C=C[C@@H]1C[C@]1(NC(=O)[C@@H]1C[C@@H]2CN1C(=O)[C@H](C1CCCC1)NC(=O)OCC(C)(C)CCCc1cc3c(nc4cc(F)ccc4c3cc1OC)O2)C(=O)NS(=O)(=O)C1CC1 | 43 | < 0.02 |  |  |
| 0.8 | 5 | 1.6 |  | C=C[C@@H]1C[C@]1(NC(=O)[C@@H]1C[C@@H]2CN1C(=O)[C@H](C1CCCC1)NC(=O)OCC(C)(C)CCCc1cc3c(cc(OCc4csc(C)n4)nc3cc1OC)O2)C(=O)NS(=O)(=O)C1CC1 | 26 | 0.09 |  |  |
